Laboratory results from patent US20110217300A1, “Quinazolinone Compounds and Methods of Use Thereof” (priority 2007, published 2011).
Like-named read-outs stand apart in the source and are kept apart here.

Key:
HsEg5 = target: T1, HsEg5 (Homo sapiens, UniProt P52732); experiment: Fluorescence detection of HsEg5 ATPase activity (ADP Quest, automated); type: biochemical
T1 sequence (P52732 18-359 limits assumed): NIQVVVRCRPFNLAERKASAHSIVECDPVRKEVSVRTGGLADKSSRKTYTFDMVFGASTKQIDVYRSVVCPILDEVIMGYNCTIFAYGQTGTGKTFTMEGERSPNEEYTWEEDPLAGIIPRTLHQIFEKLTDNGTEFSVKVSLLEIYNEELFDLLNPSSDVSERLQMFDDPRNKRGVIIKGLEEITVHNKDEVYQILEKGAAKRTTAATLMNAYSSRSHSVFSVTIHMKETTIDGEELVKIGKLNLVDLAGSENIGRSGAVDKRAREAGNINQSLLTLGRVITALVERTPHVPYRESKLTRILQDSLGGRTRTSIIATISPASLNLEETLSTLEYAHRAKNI
Procedure: Purified HsEg5 motor fragment was activated by mixture with preformed MT polymer (Cytoskeleton, Denver, Colo.) at room temperature for 20 minutes. MT activated ATPase activity was measured using ADP Quest (DiscoverX, Fremont, Calif.) in which a coupled-enzyme assay can translate accumulation of ADP into detectable resorufin signal (FIG. 1A). Fluorescence was measured at λEx=535 nm and λEm=590 nm on a Wallac Victor 2 plate reader (Perkin-Elmer Life Sciences, Boston, Mass.). Reagent A and B from ADP Quest kit were aliquoted and frozen in −20° C. before use. A standard curve was determined using the provided ADP reagent in the reaction buffer that consisted of 50 mM Pipes (pH7.0), 5.0 mM MgCl2, 20 μM paclitaxel and […]. The same buffer was used for Km determination with HsEg5 concentration of 10 nM.
For inhibitor screening, 4 μL of compounds were incubated with 10 μL of MT-activated HsEg5 such that the final concentrations for compound range from 100 μM to 5 nM (1 to 3 serial dilutions, final concentration) and final concentration for HsEg5 is 10 nM. The mixture was incubated at room temperature for 10 minutes with mild shaking. The screening assay contained 0.3% DMSO in all reaction wells. We used wells containing only DMSO as negative controls and wells without ATP as background. Addition of 6 μL ATP (final concentration of 20 μM) initiated the ATP hydrolysis reaction. The 20 μL-reaction was allowed to proceed at room temperature for 10 minutes before addition of 10 μL of reagent A and 20 μL of reagent B. After 20-minute development at room temperature, the fluorescence was measured and data analysis was performed using GraphPad Prism version 3.0 (GraphPad Software, San Diego, Calif.)
For the purpose of high-throughput screening, we automated the fluorescence assay using a Sciclone ALH3000 (Caliper Life Sciences, Hopkinton, Mass.) and Multidrop 384 (Thermo Electron Corp, Waltham, Mass.). First, compound dilution plates for screening (at 10 μM or 1 μM) and ICso determination (10 data points from 100 μM to 5 nM) were made in Corning polypropylene V-bottom 96-well plates. In both cases, the 1st and 7th column contained background (No ATP addition) and negative control (DMSO only). For screening compounds at 10 μM or 1 μM, […] of each compound at 50 μM or 5 μM were used in a 20 μL assay reaction. For IC50 determination, the mother compound plate contained 24 μL of tested compound at stock concentration of 30 mM. 6 μL of each test compound in 30 mM was added to each well in the column 2 and followed by 1:3 serial dilutions in DMSO with the Sciclone ALH3000. 234 μL of assay buffer was then added using a Multidrop 384. Then 4 μL of diluted compounds was used in 20 μL-reaction. The final concentration was a 1:300 dilution of the original stock. Second, a reagent source plate was prepared with three rows designated to MT-activated HsEg5, Reagent A and Reagent B respectively. MTs were diluted with assay buffer and polymerized at room temperature for 10 minutes. Just before use, HsEg5 protein was thawed on ice and activated by addition of MT polymers at room temperature for 20 minutes. HsEg5/MT was then added to Row A of the reagent source plate. The final assay concentration was 10 nM HsEg5 and 500 nM MTs. Reagent A and B were stored at −20° C. and thawed at room temperature followed by transferring to rows B & C of the reagent source plate. Third, ATP substrate plate was prepared by transferring 80 μM ATP solution to each well of a V-shape 96-well plate except the wells in the first row where assay buffer was added instead to have no-ATP blanks. The final concentration for ATP in the assay was 20 μM.
The assay was programmed on Sciclone ALH3000 with the following procedures: 1) Addition of 4 μL compounds to the assay plate, followed by addition of 10 μL of MT-activated HsEg5. […]

A549 = experiment: MTS cell viability assay; type: cell-based; conditions: Homo sapiens, A549 non small cell lung, 72 hours, read-out: MTS NCI A549 GI50
Procedure: Two human cancer cell lines were assayed (see, Table 1). Cells were maintained at 37° C. and 5% CO2 in DMEM media (4.5 g/L glucose) supplemented with 10% heat-inactivated FBS, 10 mM L-glutamine, and 10 mM Hepes pH 7.5. Briefly, cells were seeded in 96-well plates as set forth in Table 1 and incubated for 16-24 hours. Candidate compounds were serially diluted in DMSO, further diluted in cell culture media, and then added to cells (final DMSO concentration of 0.33%). Cells were incubated in the presence of candidate compound for 72 hours. […] The Compound Numbers in Table 2 correspond to the numbers listed parenthetically in the Example titles.

NCI-H460 = experiment: MTS cell viability assay; type: cell-based, human; conditions: Homo sapiens, NCI-H460, 72 h
Procedure: Cell viability was determined by measuring the activity of dehydrogenase enzymes in metabolically active cells using a tetrazolium compound, MTS. The assay was performed as described in Promega Technical Bulletin No. 169 (CellTiter 96 Aqueous Non-Radioactive Cell Proliferation Assay). Two human cancer cell lines were assayed (see, Table 1). Cells were maintained at 37° C. and 5% CO2 in DMEM media (4.5 g/L glucose) supplemented with 10% heat-inactivated FBS, 10 mM L-glutamine, and 10 mM Hepes pH 7.5. Briefly, cells were seeded in 96-well plates as set forth in Table 1 and incubated for 16-24 hours. Candidate compounds were serially diluted in DMSO, further diluted in cell culture media, and then added to cells (final DMSO concentration of 0.33%). Cells were incubated in the presence of candidate compound for 72 hours. MTS stock solution (MTS 2 gm/L, PMS […] in PBS) was added to the cells (final concentration MTS […] and PMS 7.67 mg/L) and incubated for 4 hours. SDS was added to a final concentration of 1.4% and absorbance at 490 nm was measured within two hours using a plate reader. […] GI50 values were given in Table 2 for the compounds listed. The Compound Numbers in Table 2 correspond to the numbers listed parenthetically in the Example titles. Where multiple measurements were made by different technicians, both values are given.
Cell viability was determined for N-(3-amino-propyl)-3-chloro-N—[(R)-1-(7-chloro-4-oxo-3-phenylamino-3,4-dihydro-quinazolin-2-yl)-but-3-ynyl]-2-fluoro-benzamide (compound I of Table 2). The cell viability assay of Example 105 was used. GI50 was determined using a variety of cell lines. Cells were plated at 100-5000 cells per well. At least 2 replicates were performed. Where multiple measurements were made by different technicians, both values are given.

[1] = read-out: MTS NCI H460 GI50, NCI-H460 non small cell lung, 72 hours

Work on `CCC(c1nc2cc(Cl)ccc2c(=O)n1Nc1ccccc1)N(CCCN)C(=O)c1ccc(F)c(Cl)c1F` (stereo not drawn) [Compound 20, N-(3-Aminopropyl)-N-[1-(3-anilino-7-chloro-4-oxo-3,4-dihydroquinazolin-2-yl)propyl]-3-chloro-2,4-difluorobenzamide] yielded an IC50 (HsEg5) of 844 nM, a GI50 (A549) of 1800 nM and a GI50 (NCI-H460; read-out: MTS NCI H460 GI50) of 1000 nM.
`CCC(c1nc2cc(Cl)ccc2c(=O)n1Nc1ccccc1)N(CCCN)C(=O)c1ccc(C)c(F)c1F` (stereo not drawn) [Compound 21, N-(3-Aminopropyl)-N-[1-(3-anilino-7-chloro-4-oxo-3,4-dihydroquinazolin-2-yl)propyl]-2,3-difluoro-4-methylbenzamide] showed an IC50 (HsEg5) of 1250 nM, a GI50 (A549; A549, 72 h) of 1930 nM and a GI50 (NCI-H460; [1]) of 1080 nM.
In the case of `CCC(c1nc2cc(Cl)ccc2c(=O)n1Nc1ccccc1)N(CCCN)C(=O)c1ccc2ccccc2n1` (stereo not drawn) [Compound 22, N-(3-Aminopropyl)-N-[1-(3-anilino-7-chloro-4-oxo-3,4-dihydroquinazolin-2-yl)propyl]quinoline-2-carboxamide], the IC50 (HsEg5) is reported as 1610 nM, the GI50 (A549) is reported as 2080 nM and the GI50 (NCI-H460; read-out: MTS NCI H460 GI50) is reported as 1170 nM.
Compound `CCC(c1nc2cc(Cl)ccc2c(=O)n1Nc1ccccc1)N(CCCN)C(=O)c1ccc(-n2cccn2)cc1` (stereo not drawn) [Compound 23, N-(3-Aminopropyl)-N-[1-(3-anilino-7-chloro-4-oxo-3,4-dihydroquinazolin-2-yl)propyl]-4-(1H-pyrazol-1-yl)benzamide] has an IC50 (HsEg5) of 1020 nM, a GI50 (A549; A549, 72 h) of 2490 nM and a GI50 (NCI-H460; [1]) of 1120 nM.
`CCC(c1nc2cc(Cl)ccc2c(=O)n1Nc1cccc(F)c1)N(CCCN)C(=O)c1ccc(C)cc1` (stereo not drawn) [Compound 24, N-(3-Aminopropyl)-N-(1-{7-chloro-3-[(3-fluorophenyl)amino]-4-oxo-3,4-dihydroquinazolin-2-yl}propyl)-4-methylbenzamide] gave an IC50 (HsEg5) of 1050 nM, a GI50 (A549) of 1790 nM and a GI50 (NCI-H460; read-out: MTS NCI H460 GI50) of 1090 nM.
`CCC(c1nc2cc(Cl)ccc2c(=O)n1Nc1ccccc1F)N(CCCN)C(=O)c1ccc(C)cc1` (stereo not drawn) [Compound 25, N-(3-Aminopropyl)-N-(1-{7-chloro-3-[(2-fluorophenyl)amino]-4-oxo-3,4-dihydroquinazolin-2-yl}propyl)-4-methylbenzamide] was tested, and the IC50 (HsEg5) was 1430 nM, the GI50 (A549) was 1520 nM and the GI50 (NCI-H460; read-out: MTS NCI H460 GI50) was 959 nM.
Compound `CCC(c1nc2cc(Cl)ccc2c(=O)n1Nc1cc(F)ccc1F)N(CCCN)C(=O)c1ccc(C)cc1` (stereo not drawn) [Compound 26, N-(3-Aminopropyl)-N-(1-{7-chloro-3-[(2,5-difluorophenyl)amino]-4-oxo-3,4-dihydroquinazolin-2-yl}propyl)-4-methylbenzamide] has an IC50 (HsEg5) of 944 nM, a GI50 (A549) of 1250 nM and a GI50 (NCI-H460; read-out: MTS NCI H460 GI50) of 889 nM.
`CCC(c1nc2ccc(Cl)cc2c(=O)n1Nc1ccccc1)N(CCCN)C(=O)c1ccc(C)cc1` (stereo not drawn) [Compound 27, N-(3-Aminopropyl)-N-[1-(3-anilino-6-chloro-4-oxo-3,4-dihydroquinazolin-2-yl)propyl]-4-methylbenzamide] showed an IC50 (HsEg5) of 1280 nM, a GI50 (A549) of 2220 nM and a GI50 (NCI-H460; read-out: MTS NCI H460 GI50) of 1080 nM.
In the case of `CCC(c1nc2ccc(C)cc2c(=O)n1Nc1ccccc1)N(CCCN)C(=O)c1ccc(C)cc1` (stereo not drawn) [Compound 28, N-(3-Aminopropyl)-N-[1-(3-anilino-6-methyl-4-oxo-3,4-dihydroquinazolin-2-yl)propyl]-4-methylbenzamide], the IC50 (HsEg5) is reported as 1590 nM, the GI50 (A549) is reported as 2500 nM and the GI50 (NCI-H460; read-out: MTS NCI H460 GI50) is reported as 1350 nM.
With `CCC(c1nc2cc(Cl)ccc2c(=O)n1Oc1ccccc1)N(CCCN)C(=O)c1ccc(C)cc1` (stereo not drawn) [Compound 29, N-(3-Aminopropyl)-N-[1-(7-chloro-4-oxo-3-phenoxy-3,4-dihydroquinazolin-2-yl)propyl]-4-methylbenzamide] the IC50 (HsEg5) was 2170 nM, the GI50 (A549; A549, 72 h) was 3310 nM and the GI50 (NCI-H460; [1]) was 2090 nM.
`CCC(c1nc2cc(Cl)ccc2c(=O)n1OCc1ccccc1)N(CCCN)C(=O)c1ccc(C)cc1` (stereo not drawn) [Compound 32, N-(3-Aminopropyl)-N-{1-[3-(benzyloxy)-7-chloro-4-oxo-3,4-dihydroquinazolin-2-yl]propyl}-4-methylbenzamide] showed an IC50 (HsEg5) of 1390 nM, a GI50 (A549) of 1870 nM and a GI50 (NCI-H460; read-out: MTS NCI H460 GI50) of 956 nM.
In the case of `CC[C@H](c1nc2cc(Cl)ccc2c(=O)n1Nc1ccccc1)N(CCCN)S(=O)(=O)c1ccsc1` [Compound 34, N-(3-Aminopropyl)-N-[(1R)-1-(3-anilino-7-chloro-4-oxo-3,4-dihydroquinazolin-2-yl)propyl]thiophene-3-sulfonamide], the IC50 (HsEg5) is reported as 1650 nM, the GI50 (A549) is reported as 6360 nM and the GI50 (NCI-H460; read-out: MTS NCI H460 GI50) is reported as 5470 nM.
Compound `CC(C)CC(c1nc2cc(Cl)ccc2c(=O)n1Nc1ccccc1)N(CCCN)C(=O)c1ccc(F)c(F)c1` (stereo not drawn) [Compound 35, N-(3-Aminopropyl)-N-[1-(3-anilino-7-chloro-4-oxo-3,4-dihydroquinazolin-2-yl)-3-methylbutyl]-3,4-difluorobenzamide] has an IC50 (HsEg5) of 1960 nM, a GI50 (A549) of 4520 nM and a GI50 (NCI-H460; read-out: MTS NCI H460 GI50) of 6150 nM.
In the case of `CC(C)CC(c1nc2cc(Cl)ccc2c(=O)n1Nc1ccccc1)N(CCCN)C(=O)c1cc(Cl)cc(Cl)c1` (stereo not drawn) [Compound 36, N-(3-Aminopropyl)-N-[1-(3-anilino-7-chloro-4-oxo-3,4-dihydroquinazolin-2-yl)-3-methylbutyl]-3,5-dichlorobenzamide], the IC50 (HsEg5) is reported as 1860 nM, the GI50 (A549) is reported as 4370 nM and the GI50 (NCI-H460; read-out: MTS NCI H460 GI50) is reported as 3770 nM.
